Results published in patent publication US8901133B2, “Heterocyclic compounds and uses thereof” (Infinity Pharmaceuticals, Inc., priority 2010, dated 2014).

Assays:
PI3Kβ = molecular target: T1, PI3Kβ (Homo sapiens, UniProt P42338); experiment: PI3 Kinase HTRF assay, PI3Kβ; format: biochemical; conditions: 10 μM PIP2, 10 μM ATP; read-out: PI3K β IC50
T1 construct: purchased Millipore Corporation 14-603-K
Summary of the method: (§1)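 Compounds were tested at 12 concentrations from 20 μM down to 0.1 nM against purified recombinant PI3K, which phosphorylated PIP2 (10 μM) in the presence of ATP (10 μM). Formed PIP3 was quantified by time-resolved FRET using GRP1 PH domain binding; emission ratios gave percent inhibition and IC50.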

PI3Kγ = molecular target: T2, PI3Kγ (Homo sapiens, UniProt P48736); experiment: PI3 Kinase HTRF assay, PI3Kγ; format: biochemical; conditions: 10 μM PIP2, 10 μM ATP; read-out: PI3K γ IC50
T2 construct: purchased Millipore Corporation 14-558-K
Summary of the method: as §1

PI3Kδ = molecular target: T3, PI3Kδ (Homo sapiens, UniProt O00329); experiment: PI3 Kinase HTRF assay, PI3Kδ; format: biochemical; conditions: 10 μM PIP2, 10 μM ATP; read-out: PI3K δ IC50
T3 construct: purchased Millipore Corporation 14-604-K
Summary of the method: as §1

Balb/c splenic B cells = experiment: B cell activation and proliferation assay (Alamar Blue); format: cell-based; conditions: Mus musculus, read-out: B cell prolif. IC50
Protocol: The ability of one or more subject compounds to inhibit B cell activation and proliferation is determined according to standard procedures known in the art. For example, an in vitro cellular proliferation assay is established that measures the metabolic activity of live cells. The assay is performed in a 96 well microtiter plate using Alamar Blue reduction. Balb/c splenic B cells are purified over a Ficoll-Paque™ PLUS gradient followed by magnetic cell separation using a MACS B cell Isolation Kit (Miletenyi). Cells are plated in 90 ul at 50,000 cells/well in B Cell Media (RPMI+10% FBS+Penn/Strep+50 uM bME+5 mM HEPES). A compound disclosed herein is diluted in B Cell Media and added in a 10 μl volume. Plates are incubated for 30 min at 37 C and 5% CO2 (0.2% DMSO final concentration). A 50 μl B cell stimulation cocktail is then added containing either 10 ug/ml LPS or 5 ug/ml F(ab′)2 Donkey anti-mouse IgM plus 2 ng/ml recombinant mouse IL4 in B Cell Media. Plates are incubated for 72 hours at 37° C. and 5% CO2. A volume of 15 μl of Alamar Blue reagent is added to each well and plates are incubated for 5 hours at 37 C and 5% CO2. Alamar Blue fluoresce is read at 560Ex/590Em, and IC50 or EC50 values are calculated using GraphPad Prism 5.

PI3Kα = molecular target: T4, PI3Kα (Homo sapiens, UniProt P42336); experiment: PI3 Kinase HTRF assay, PI3Kα; format: biochemical; conditions: 10 μM PIP2, 10 μM ATP; read-out: PI3K α IC50
T4 construct: purchased Millipore Corporation 14-602-K
Summary of the method: as §1

T3 sequence (O00329 whole entry): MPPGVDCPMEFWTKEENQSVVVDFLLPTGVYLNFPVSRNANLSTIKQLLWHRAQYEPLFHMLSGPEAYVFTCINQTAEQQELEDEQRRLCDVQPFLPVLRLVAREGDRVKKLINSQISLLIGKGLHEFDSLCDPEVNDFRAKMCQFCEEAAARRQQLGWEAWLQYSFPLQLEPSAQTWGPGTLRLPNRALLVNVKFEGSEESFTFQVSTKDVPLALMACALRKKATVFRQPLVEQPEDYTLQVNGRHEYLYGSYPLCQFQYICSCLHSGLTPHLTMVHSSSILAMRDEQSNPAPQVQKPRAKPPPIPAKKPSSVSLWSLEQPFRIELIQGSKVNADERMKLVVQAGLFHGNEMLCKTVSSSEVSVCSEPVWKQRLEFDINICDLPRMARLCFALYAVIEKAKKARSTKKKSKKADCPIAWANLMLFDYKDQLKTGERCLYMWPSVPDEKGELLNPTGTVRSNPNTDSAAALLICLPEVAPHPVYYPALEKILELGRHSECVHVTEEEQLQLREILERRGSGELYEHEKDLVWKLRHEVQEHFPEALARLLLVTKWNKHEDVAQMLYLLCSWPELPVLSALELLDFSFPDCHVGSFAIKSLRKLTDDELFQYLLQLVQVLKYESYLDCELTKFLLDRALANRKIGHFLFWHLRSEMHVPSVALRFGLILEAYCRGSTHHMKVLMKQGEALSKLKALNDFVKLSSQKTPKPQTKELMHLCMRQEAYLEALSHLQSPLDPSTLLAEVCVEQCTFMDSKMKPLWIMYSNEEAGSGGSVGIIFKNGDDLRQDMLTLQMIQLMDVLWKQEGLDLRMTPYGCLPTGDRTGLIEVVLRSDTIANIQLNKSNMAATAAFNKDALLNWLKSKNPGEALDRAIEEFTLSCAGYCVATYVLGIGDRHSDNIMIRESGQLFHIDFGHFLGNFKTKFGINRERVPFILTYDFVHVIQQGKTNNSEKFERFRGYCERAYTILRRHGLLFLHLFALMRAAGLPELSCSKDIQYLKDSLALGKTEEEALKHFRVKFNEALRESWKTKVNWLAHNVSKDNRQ
T3 sequence (P27986 whole entry partner): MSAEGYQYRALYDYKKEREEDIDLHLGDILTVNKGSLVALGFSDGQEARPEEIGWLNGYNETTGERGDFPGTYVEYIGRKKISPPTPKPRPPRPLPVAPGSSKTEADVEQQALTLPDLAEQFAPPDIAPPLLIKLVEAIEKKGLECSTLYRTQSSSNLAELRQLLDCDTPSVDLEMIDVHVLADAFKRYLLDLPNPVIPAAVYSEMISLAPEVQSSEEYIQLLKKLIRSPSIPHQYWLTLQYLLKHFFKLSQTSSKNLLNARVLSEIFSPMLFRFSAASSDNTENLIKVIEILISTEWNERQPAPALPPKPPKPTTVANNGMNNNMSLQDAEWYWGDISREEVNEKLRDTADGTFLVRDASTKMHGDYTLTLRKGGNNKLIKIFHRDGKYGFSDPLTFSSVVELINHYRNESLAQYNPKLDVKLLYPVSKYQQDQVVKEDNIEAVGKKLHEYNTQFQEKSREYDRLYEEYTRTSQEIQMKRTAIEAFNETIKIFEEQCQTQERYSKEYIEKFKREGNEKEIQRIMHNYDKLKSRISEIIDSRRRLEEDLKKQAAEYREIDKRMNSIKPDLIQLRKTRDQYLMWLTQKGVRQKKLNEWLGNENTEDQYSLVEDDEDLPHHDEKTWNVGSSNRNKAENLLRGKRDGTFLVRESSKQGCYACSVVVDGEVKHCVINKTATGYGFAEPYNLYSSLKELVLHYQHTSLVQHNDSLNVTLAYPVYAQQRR
T1 sequence (P42338 whole entry): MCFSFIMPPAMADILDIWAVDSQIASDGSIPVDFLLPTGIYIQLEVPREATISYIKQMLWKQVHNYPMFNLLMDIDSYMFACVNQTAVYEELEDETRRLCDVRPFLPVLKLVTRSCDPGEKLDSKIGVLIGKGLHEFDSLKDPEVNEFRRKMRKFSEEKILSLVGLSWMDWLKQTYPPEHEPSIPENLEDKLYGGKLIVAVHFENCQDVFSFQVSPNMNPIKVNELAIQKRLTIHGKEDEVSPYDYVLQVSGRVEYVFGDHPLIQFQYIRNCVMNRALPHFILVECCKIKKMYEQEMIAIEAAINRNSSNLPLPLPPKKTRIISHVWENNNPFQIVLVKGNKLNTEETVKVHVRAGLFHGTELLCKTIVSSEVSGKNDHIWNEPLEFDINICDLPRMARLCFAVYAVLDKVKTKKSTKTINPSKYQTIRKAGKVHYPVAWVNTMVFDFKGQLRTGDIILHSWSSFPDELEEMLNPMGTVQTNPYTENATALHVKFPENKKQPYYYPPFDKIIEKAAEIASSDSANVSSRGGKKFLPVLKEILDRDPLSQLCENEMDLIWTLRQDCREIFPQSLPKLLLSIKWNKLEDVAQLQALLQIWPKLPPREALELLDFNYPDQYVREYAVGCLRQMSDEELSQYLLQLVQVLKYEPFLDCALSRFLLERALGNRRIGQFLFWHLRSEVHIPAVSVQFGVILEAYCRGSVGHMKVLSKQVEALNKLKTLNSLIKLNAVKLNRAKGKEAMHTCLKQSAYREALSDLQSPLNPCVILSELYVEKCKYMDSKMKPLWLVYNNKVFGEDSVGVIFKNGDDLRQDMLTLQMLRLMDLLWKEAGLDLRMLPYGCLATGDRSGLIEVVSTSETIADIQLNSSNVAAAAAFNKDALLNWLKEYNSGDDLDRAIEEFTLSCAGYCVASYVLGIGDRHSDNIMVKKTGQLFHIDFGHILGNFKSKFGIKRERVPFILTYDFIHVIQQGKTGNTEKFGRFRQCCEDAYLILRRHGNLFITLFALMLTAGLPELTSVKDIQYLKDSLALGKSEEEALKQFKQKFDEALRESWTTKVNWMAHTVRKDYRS
T1 sequence (P27986 whole entry partner): as the sequence (P27986 whole entry partner) above
T2 sequence (P48736 whole entry): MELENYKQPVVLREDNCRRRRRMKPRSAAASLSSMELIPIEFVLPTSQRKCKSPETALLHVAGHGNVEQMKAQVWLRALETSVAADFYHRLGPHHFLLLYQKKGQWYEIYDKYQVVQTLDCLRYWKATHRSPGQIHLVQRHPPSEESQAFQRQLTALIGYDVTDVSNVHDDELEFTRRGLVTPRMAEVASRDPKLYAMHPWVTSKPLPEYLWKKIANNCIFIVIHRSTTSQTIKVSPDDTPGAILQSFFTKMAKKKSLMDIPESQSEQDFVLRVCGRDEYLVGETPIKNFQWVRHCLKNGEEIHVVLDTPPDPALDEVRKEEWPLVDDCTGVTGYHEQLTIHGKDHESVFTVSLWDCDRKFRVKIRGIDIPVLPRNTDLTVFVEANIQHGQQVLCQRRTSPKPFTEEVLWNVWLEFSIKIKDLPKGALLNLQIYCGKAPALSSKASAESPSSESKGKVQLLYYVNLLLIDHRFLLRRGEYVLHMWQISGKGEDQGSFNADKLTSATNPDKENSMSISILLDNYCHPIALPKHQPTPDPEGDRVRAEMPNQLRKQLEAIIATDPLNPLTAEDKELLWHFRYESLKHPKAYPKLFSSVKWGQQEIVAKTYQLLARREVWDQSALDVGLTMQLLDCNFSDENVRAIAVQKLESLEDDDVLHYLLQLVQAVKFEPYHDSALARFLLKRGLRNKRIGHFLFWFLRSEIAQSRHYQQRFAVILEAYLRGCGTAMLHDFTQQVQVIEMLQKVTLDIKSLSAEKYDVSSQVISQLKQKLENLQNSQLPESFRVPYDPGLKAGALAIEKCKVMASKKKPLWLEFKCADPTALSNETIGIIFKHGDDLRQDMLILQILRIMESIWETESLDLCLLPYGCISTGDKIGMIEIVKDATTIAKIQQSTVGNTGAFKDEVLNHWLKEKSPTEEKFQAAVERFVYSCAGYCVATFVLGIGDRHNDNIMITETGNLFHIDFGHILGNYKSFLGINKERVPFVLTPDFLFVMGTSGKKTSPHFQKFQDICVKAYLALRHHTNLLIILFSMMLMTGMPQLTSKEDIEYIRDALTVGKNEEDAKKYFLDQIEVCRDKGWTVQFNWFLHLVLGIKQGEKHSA
T4 sequence (P42336 whole entry): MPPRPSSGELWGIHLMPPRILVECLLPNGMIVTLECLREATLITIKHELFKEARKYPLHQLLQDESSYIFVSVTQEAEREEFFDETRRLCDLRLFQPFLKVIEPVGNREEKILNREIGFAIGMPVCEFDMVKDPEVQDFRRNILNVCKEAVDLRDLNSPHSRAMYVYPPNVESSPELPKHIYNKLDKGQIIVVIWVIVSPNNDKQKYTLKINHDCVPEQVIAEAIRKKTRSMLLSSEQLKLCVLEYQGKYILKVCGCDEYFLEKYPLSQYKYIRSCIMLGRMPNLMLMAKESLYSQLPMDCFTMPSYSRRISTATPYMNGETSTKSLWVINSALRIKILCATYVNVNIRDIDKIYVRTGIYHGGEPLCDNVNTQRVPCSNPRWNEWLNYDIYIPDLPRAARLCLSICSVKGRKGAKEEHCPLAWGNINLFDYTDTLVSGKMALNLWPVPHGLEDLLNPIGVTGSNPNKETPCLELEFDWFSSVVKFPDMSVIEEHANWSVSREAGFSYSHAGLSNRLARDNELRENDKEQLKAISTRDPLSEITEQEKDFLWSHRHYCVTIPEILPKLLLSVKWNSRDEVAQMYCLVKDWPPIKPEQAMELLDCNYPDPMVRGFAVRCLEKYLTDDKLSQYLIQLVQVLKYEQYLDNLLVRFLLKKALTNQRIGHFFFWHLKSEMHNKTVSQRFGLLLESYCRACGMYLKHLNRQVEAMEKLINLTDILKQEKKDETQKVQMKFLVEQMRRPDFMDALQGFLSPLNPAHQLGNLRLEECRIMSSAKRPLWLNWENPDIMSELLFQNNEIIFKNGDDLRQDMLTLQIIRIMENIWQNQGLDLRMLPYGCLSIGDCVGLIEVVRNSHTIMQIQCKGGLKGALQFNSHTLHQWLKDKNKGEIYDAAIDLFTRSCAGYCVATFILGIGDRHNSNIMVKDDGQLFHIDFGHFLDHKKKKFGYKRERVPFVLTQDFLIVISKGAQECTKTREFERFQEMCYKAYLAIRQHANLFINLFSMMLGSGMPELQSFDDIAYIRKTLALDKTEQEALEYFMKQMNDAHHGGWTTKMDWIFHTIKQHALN
T4 sequence (P27986 whole entry partner): as the sequence (P27986 whole entry partner) above

Structure (SMILES)	IC50 (PI3Kβ) [µM]	IC50 (PI3Kγ) [nM]	IC50 (PI3Kδ) [nM]	IC50 (PI3Kα) [µM]	IC50 (Balb/c splenic B cells) [nM]
CC(C)N1CCC(Oc2nc([C@H](C)Nc3ccnc4ccnn34)cc3cccc(Cl)c23)CC1 [Compound 107]	< 10	< 10000	< 100	< 10	< 100
C[C@H](Nc1ncnc2scnc12)c1cc2cccc(Cl)c2c(C(=O)N2CCOCC2)n1 [Compound 116]	< 1	< 1000	< 100	< 10	< 100
C[C@H](Nc1ncnc2ccccc12)c1cc2cccc(Cl)c2c(C(=O)N2CCOCC2)n1 [Compound 119]	> 10	< 1000	< 100	< 10	< 1000
C[C@H](Nc1ccnc2ccnn12)c1cc2cccc(Cl)c2c(C(=O)N2CCOCC2)n1 [Compound 120]	< 10	< 1000	< 100	< 10	< 100
C[C@H](Nc1ncnc2scnc12)c1cc2cccc(Cl)c2c(OCCN2CCCC2)n1 [Compound 121]	< 1	< 1000	< 100	< 1	< 100
C[C@H](Nc1ncnc2cccnc12)c1cc2cccc(Cl)c2c(C(=O)N2C3CCC2COC3)n1 [Compound 123]	< 10	< 1000	< 100	< 10	< 100
C[C@H](Nc1ncnc2scnc12)c1cc2cccc(Cl)c2c(C(=O)N2C3CCC2COC3)n1 [Compound 124]	< 1	< 1000	< 100	< 10	< 100
C[C@H](Nc1ccnc2ccnn12)c1cc2cccc(Cl)c2c(C(=O)N2C3CCC2COC3)n1 [Compound 125]	< 10	< 10000	< 100	> 10	< 100

Now from value to compound, other results behind:

IC50 (PI3Kβ) [µM]	IC50 (PI3Kγ) [nM]	IC50 (PI3Kδ) [nM]	IC50 (PI3Kα) [µM]	Structure (SMILES)	IC50 (Balb/c splenic B cells) [nM]
< 10	< 10000	< 100	< 10	CC(C)N1CCN(c2nc([C@H](C)Nc3ncnc4[nH]cnc34)cc3cccc(Cl)c23)CC1 [Compound 90]	< 100
< 10	< 10000	< 100	< 10	CCN1CCN(c2nc([C@H](C)Nc3ncnc4[nH]cnc34)cc3cccc(Cl)c23)CC1 [Compound 91]	< 100
< 10	< 10000	< 100	< 10	Cc1cccc2cc([C@H](C)Nc3ncnc4[nH]cnc34)nc(OCC3CCN(C)CC3)c12 [Compound 92]	< 100
< 1	< 1000	< 100	< 10	C[C@H](Nc1ncnc2[nH]cnc12)c1cc2cccc(Cl)c2c(SCCN2CCOCC2)n1 [Compound 93, (S)—N-(1-(8-chloro-1-(2-morpholinoethylthio)isoquinolin-3-yl)ethyl)-9H-purin-6-amine]	< 100
< 1	< 10000	< 100	< 10	C[C@H](Nc1ncnc2scnc12)c1cc2cccc(Cl)c2c(N2CCN(C)CC2)n1 [Compound 98]	< 100
> 10	< 100	< 100	< 10	CC(C)N1CCC(Oc2nc([C@H](C)Nc3ncnc4cccnc34)cc3cccc(Cl)c23)CC1 [Compound 108]	< 1000
< 10	< 10000	< 100	< 10	CC(C)N1CCC(Oc2nc([C@H](C)Nc3ncnc4scnc34)cc3cccc(Cl)c23)CC1 [Compound 122]	< 1000
< 1	< 1000	< 100	< 10	C[C@H](Nc1ncnc2[nH]cnc12)c1cc2cccc(Cl)c2c([S+]([O-])CCN2CCOCC2)n1 (stereo partly shown) [Compound 129]	< 1000
< 10	> 10000	< 100	> 10	C[C@H](Nc1ncnc2[nH]cnc12)c1cc2cccc(Cl)c2c(SCCN2CCCC2)n1 [Compound 135]	< 1000
